Experiment [1] addresses T1, Human Indoleamine 2,3-dioxygenase (IDO) (Homo sapiens, UniProt P14902).
T1 construct: His tag (N); made in house; host or cells: E. coli
Kind of experiment: Human IDO enzymatic assay (kynurenine level). The format is biochemical. Conditions: 6 nM IDO, 10 μM L-Trp; geometric mean; read-out: IDO1 GMean: IC50 (μM) (Biochemical Assay). The method in brief:
(§1)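 N-His human IDO (6 nM, 10 μM L-Trp, 5 μM methylene blue, 20 min) or TDO (1 nM, 350 μM L-Trp, 0.4 μM methylene blue, 70 min) run at room temp in pH 6.5 phosphate with ascorbate, catalase, Tween 20. TCA stop, 30 min 50 °C converts N-formylkynurenine to kynurenine; IC50 by nonlinear regression.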

Experiment [2] deals with T2, Human Tryptophan 2,3-dioxygenase (TDO) (Homo sapiens, UniProt P48775).
T2 construct: His tag (N); made in house; host or cells: E. coli
Kind of experiment: Human TDO enzymatic assay (kynurenine level). The format is biochemical. As to conditions: 1 nM TDO, 350 μM L-Trp; geometric mean; read-out: TDO GMean: IC50 (μM) (Biochemical Assay). A digest of the protocol:
as §1

The target of experiment [3] is T3, human IDO (IDO1-expressing HEK293 cells) (Homo sapiens, UniProt P14902).
T3 construct: expressed in transfected cells
Nature of the experiment: Cell based kynurenine assay, IDO1-expressing HEK293 cell clones. Conditions: IDO1-expressing HEK293 cells, geometric mean, read-out: HEK293 IDO1 Kynurenine GMean IC50 (μM) (Cellular Assay). The method in brief: (§2)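 Stably transfected HEK293 clones expressing human IDO1 or TDO (CMV promoter) were seeded at 2.5×10^4 cells/well and treated with serially diluted compounds for 24 h. Supernatant kynurenine was then measured, and % inhibition versus DMSO-treated cell and media-only controls was fitted by nonlinear regression to give IC50.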

For experiment [4], the target named is T4, human TDO (TDO-expressing HEK293 cells) (Homo sapiens, UniProt P48775).
T4 construct: expressed in transfected cells
Kind of experiment: Cell based kynurenine assay, TDO-expressing HEK293 cell clones. Conditions: TDO-expressing HEK293 cells, geometric mean, read-out: HEK293 TDO Kynurenine GMean IC50 (μM) (Cellular Assay). The method in brief: as §2

The structures appear in SMILES notation. Like-named read-outs stand apart in the source and are kept apart here. Some results are limits rather than exact numbers.

T3 sequence (P14902 whole entry): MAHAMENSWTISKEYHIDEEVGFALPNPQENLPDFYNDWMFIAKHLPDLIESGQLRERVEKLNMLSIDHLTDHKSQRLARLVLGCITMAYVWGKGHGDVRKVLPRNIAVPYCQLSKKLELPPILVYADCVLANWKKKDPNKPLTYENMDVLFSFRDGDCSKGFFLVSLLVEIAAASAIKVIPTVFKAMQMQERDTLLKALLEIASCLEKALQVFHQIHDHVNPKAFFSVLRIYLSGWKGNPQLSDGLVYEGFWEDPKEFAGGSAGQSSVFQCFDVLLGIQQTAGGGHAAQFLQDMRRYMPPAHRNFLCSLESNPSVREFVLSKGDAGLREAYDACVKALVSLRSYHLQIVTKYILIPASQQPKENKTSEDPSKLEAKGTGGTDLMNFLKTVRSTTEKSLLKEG
T1 sequence (P14902 whole entry): as above
T2 sequence (P48775 whole entry): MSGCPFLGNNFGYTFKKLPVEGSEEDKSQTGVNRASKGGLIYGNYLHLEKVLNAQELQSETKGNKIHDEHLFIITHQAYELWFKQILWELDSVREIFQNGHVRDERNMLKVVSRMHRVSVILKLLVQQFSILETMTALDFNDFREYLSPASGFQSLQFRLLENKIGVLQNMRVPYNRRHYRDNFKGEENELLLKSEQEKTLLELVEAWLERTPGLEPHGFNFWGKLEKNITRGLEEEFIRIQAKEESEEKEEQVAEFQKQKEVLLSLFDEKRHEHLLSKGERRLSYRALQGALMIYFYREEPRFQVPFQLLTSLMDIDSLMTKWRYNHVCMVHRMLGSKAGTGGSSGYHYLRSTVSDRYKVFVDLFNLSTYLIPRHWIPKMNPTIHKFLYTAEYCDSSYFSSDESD
T4 sequence (P48775 whole entry): as above

Broadly, the IC50 is the midpoint of a concentration-inhibition curve. For `CS(=O)(=O)N1CCC(C(F)(F)C(O)c2c(F)c(Cl)cc3cn[nH]c23)CC1` (centres unmarked) [Compound P-0288, 1-(5-chloro-6-fluoro-1H-indazol-7-yl)-2,2-difluoro-2-(1-(methylsulfonyl)piperidin-4-yl)ethan-1-ol], the concentration for half-maximal inhibition (IC50) in experiment [1], in experiment [2], in experiment [3] (24 hours incubation) and in experiment [4] (24 hours incubation) was 0.0001 to 10 µM throughout.
`CC1(C)C2CCC(C2)[C@]12C[C@@](O)(c1cc(Cl)cc3cn[nH]c31)C2` (some centres unmarked) [Compound P-0193, (2s,3′s)-3′-(5-chloro-1H-indazol-7-yl)-3,3-dimethylspiro[bicyclo[2.2.1]heptane-2,1′-cyclobutan]-3′-ol]: the IC50 in experiment [1], in experiment [2], in experiment [3] (24 hours incubation) and in experiment [4] (24 hours incubation) was 0.0001 to 10 µM each time.
Regarding `CC(=O)N1CCC(C2(C(O)c3c(F)c(Cl)cc4cn[nH]c34)CC2)CC1` (stereo not drawn) [Compound P-0159, 1-(4-(1-((5-chloro-6-fluoro-1H-indazol-7-yl)(hydroxy)methyl)cyclopropyl)piperidin-1-yl)ethan-l-one], the IC50 in experiment [1], in experiment [2], in experiment [3] (24 hours incubation) and in experiment [4] (24 hours incubation) was 0.0001 to 10 µM throughout.
For the compound `CCC(CC)(CCC#N)C(O)c1cc(Cl)cc2cn[nH]c12` (centres unmarked) [Compound P-0256, 4-((5-chloro-1H-indazol-7-yl)(hydroxy)methyl)-4-ethylhexanenitrile], the IC50 in experiment [1], in experiment [2], in experiment [3] (24 hours incubation) and in experiment [4] (24 hours incubation) was 0.0001 to 10 µM each time.
Take `CS(=O)(=O)N1CC(C(O)c2cc(Cl)cc3cn[nH]c23)C1` (centres unmarked) [Compound P-0226, (5-chloro-1H-indazol-7-yl)(1-(methylsulfonyl)azetidin-3-yl)methanol]: the IC50 in experiment [1] is 0.0001 to 10 µM; in experiment [2], 0.0001 to 10 µM; in experiment [3] (24 hours incubation), 0.0001 to 10 µM; in experiment [4] (24 hours incubation) it was above 10 µM.
For `CCOC(=O)N1CCC(C(C)(C)C(O)c2cc(Cl)cc3cn[nH]c23)CC1` (centres unmarked) [Compound P-0322, ethyl 4-(1-(5-chloro-1H-indazol-7-yl)-1-hydroxy-2-methylpropan-2-yl)piperidine-1-carboxylate], the half-maximal inhibitory concentration (IC50) in experiment [1], in experiment [2], in experiment [3] (24 hours incubation) and in experiment [4] (24 hours incubation) was 0.0001 to 10 µM in each case.
Regarding `CC(C)(C1CCN(C(=O)NCCS(C)(=O)=O)CC1)C(O)c1cc(Cl)cc2cn[nH]c12` (centres unmarked) [Compound P-0452, 4-(1-(5-chloro-1H-indazol-7-yl)-1-hydroxy-2-methylpropan-2-yl)-N-(2-(methylsulfonyl)ethyl)piperidine-1-carboxamide], the IC50 in experiment [1], in experiment [2], in experiment [3] (24 hours) and in experiment [4] (24 hours) was 0.0001 to 10 µM in each case.
As to `OC(c1cc(Cl)cc2cn[nH]c12)C12CCC(F)(CC1)CC2` (centres unmarked) [Compound P-0227, (5-chloro-1H-indazol-7-yl)(4-fluorobicyclo[2.2.2]octan-1-yl)methanol], the IC50 in experiment [1], in experiment [2], in experiment [3] (24 hours incubation) and in experiment [4] (24 hours incubation) was 0.0001 to 10 µM each time.
In the case of `CC(=O)N1C[C@H]2CC[C@@H](C1)[C@@H]2C(F)(F)C(O)c1cc(Cl)cc2cn[nH]c12` (stereo partly drawn) [Compound P-0303, 1-((1R,5S,8s)-8-(2-(5-chloro-1H-indazol-7-yl)-1,1-difluoro-2-hydroxyethyl)-3-azabicyclo[3.2.1]octan-3-yl)ethan-1-one], the IC50 in experiment [1], in experiment [2], in experiment [3] (24 hours incubation) and in experiment [4] (24 hours incubation) was 0.0001 to 10 µM each time.
On to `CC(C)(c1ccccc1)C(O)c1cc(Cl)cc2cn[nH]c12` (centres unmarked) [Compound P-0027, 1-(5-chloro-1H-indazol-7-yl)-2-methyl-2-phenylpropan-1-ol], for which the IC50 in experiment [1], in experiment [2], in experiment [3] (24 hours incubation) and in experiment [4] (24 hours incubation) was 0.0001 to 10 µM each time.
With `OC(c1cc(Cl)cc2cn[nH]c12)C12CCC(O)(CC1)CC2` (centres unmarked) [Compound P-0133, 4-((5-chloro-1H-indazol-7-yl)(hydroxy)methyl)bicyclo[2.2.2]octan-1-ol], the IC50 in experiment [1], in experiment [2], in experiment [3] (24 hours incubation) and in experiment [4] (24 hours incubation) was 0.0001 to 10 µM throughout.
Turning to `CC1(C(O)c2cc(Br)cc3cn[nH]c23)CCCCC1` (centres unmarked) [Compound P-0263, (5-bromo-1H-indazol-7-yl)(1-methylcyclohexyl)methanol], the IC50 in experiment [1], in experiment [2], in experiment [3] (24 hours incubation) and in experiment [4] (24 hours incubation) was 0.0001 to 10 µM each time.
Take `CC(C)(C1CCN(C(=O)N2CCOCC2)CC1)C(O)c1cc(Cl)cc2cn[nH]c12` (centres unmarked) [Compound P-0391, (4-(1-(5-chloro-1H-indazol-7-yl)-1-hydroxy-2-methylpropan-2-yl)piperidin-1-yl)(morpholino) methanone]: the IC50 in experiment [1], in experiment [2], in experiment [3] (24 hours incubation) and in experiment [4] (24 hours incubation) was 0.0001 to 10 µM each time.
On to `CC1(C(O)c2cc(Cl)c(F)c3cn[nH]c23)CCCCC1` (centres unmarked) [Compound P-0055, (5-chloro-4-fluoro-1H-indazol-7-yl)(1-methylcyclohexyl)methanol], for which the IC50 in experiment [1], in experiment [2], in experiment [3] (24 hours incubation) and in experiment [4] (24 hours incubation) was 0.0001 to 10 µM throughout.
As for `COCCCNC(=O)N1CCC(C(C)(C)C(O)c2c(F)c(Cl)cc3cn[nH]c23)CC1` (centres unmarked) [Compound P-0420, 4-(1-(5-chloro-6-fluoro-1H-indazol-7-yl)-1-hydroxy-2-methylpropan-2-yl)-N-(3-methoxypropyl) piperidine-1-carboxamide], the IC50 in experiment [1], in experiment [2], in experiment [3] (24 hours) and in experiment [4] (24 hours) was 0.0001 to 10 µM in each case.
Regarding `CC(C)(C1CCN(C(=O)NCc2ccccn2)CC1)C(O)c1cc(Cl)cc2cn[nH]c12` (centres unmarked) [Compound P-0477, 4-(1-(5-chloro-1H-indazol-7-yl)-1-hydroxy-2-methylpropan-2-yl)-N-(pyridin-2-ylmethyl)piperidine-1-carboxamide], the IC50 in experiment [1], in experiment [2], in experiment [3] (24 hours) and in experiment [4] (24 hours) was 0.0001 to 10 µM throughout.
Consider `CC(C)(C1CCN(C(=O)Nc2ccc(F)cc2)CC1)[C@H](O)c1cc(Cl)cc2cn[nH]c12` [Compound P-0344, (S)-4-(1-(5-chloro-1H-indazol-7-yl)-1-hydroxy-2-methylpropan-2-yl)-N-(4-fluorophenyl)piperidine-1-carboxamide], for which the IC50 in experiment [1], in experiment [2], in experiment [3] (24 hours incubation) and in experiment [4] (24 hours incubation) was 0.0001 to 10 µM throughout.
Consider `CC1(C(O)c2c(F)c(Cl)cc3cn[nH]c23)CC(F)(F)C1` (centres unmarked) [Compound P-0114, (5-chloro-6-fluoro-1H-indazol-7-yl)(3,3-difluoro-1-methylcyclobutyl)methanol], for which the IC50 in experiment [1], in experiment [2], in experiment [3] (24 hours incubation) and in experiment [4] (24 hours incubation) was 0.0001 to 10 µM throughout.
Turning to `CC(C)(C)OC(=O)N1CCC(C(C)(C)C(O)c2cc(Cl)cc3cn[nH]c23)CC1` (racemic) [Compound P-0163, tert-butyl 4-(1-(5-chloro-1H-indazol-7-yl)-1-hydroxy-2-methylpropan-2-yl)piperidine-1-carboxylate], the IC50 in experiment [1], in experiment [2], in experiment [3] (24 hours incubation) and in experiment [4] (24 hours incubation) was 0.0001 to 10 µM in each case.
Consider `COCCNC(=O)N1CCC(C(C)(C)[C@H](O)c2cc(Cl)cc3cn[nH]c23)CC1` [Compound P-0446, (S)-4-(1-(5-chloro-1H-indazol-7-yl)-1-hydroxy-2-methylpropan-2-yl)-N-(2-methoxyethyl) piperidine-1-carboxamide], for which the IC50 in experiment [1], in experiment [2], in experiment [3] (24 hours) and in experiment [4] (24 hours) was 0.0001 to 10 µM in each case.
As to `OC(c1cc(Cl)cc2cn[nH]c12)C1(C2CCC2)CCC1` (centres unmarked) [Compound P-0186, [1,1′-bi(cyclobutan)]-1-yl(5-chloro-1H-indazol-7-yl)methanol], the IC50 in experiment [1], in experiment [2], in experiment [3] (24 hours incubation) and in experiment [4] (24 hours incubation) was 0.0001 to 10 µM throughout.
Turning to `COc1ccc(CC(=O)N2CCC(C(F)(F)C(O)c3cc(Cl)cc4cn[nH]c34)CC2)cc1` (centres unmarked) [Compound P-0496, 1-(4-(2-(5-chloro-1H-indazol-7-yl)-1,1-difluoro-2-hydroxyethyl)piperidin-1-yl)-2-(4-methoxyphenyl) ethan-1-one], the concentration for half-maximal inhibition (IC50) in experiment [1], in experiment [2], in experiment [3] (24 hours) and in experiment [4] (24 hours) was 0.0001 to 10 µM each time.
Turning to `CC1(C)CN(c2cc(C(F)(F)F)cc3cn[nH]c23)CCN1S(C)(=O)=O` [Compound P-0091], the IC50 in experiment [1], in experiment [2], in experiment [3] (24 hours incubation) and in experiment [4] (24 hours incubation) was 0.0001 to 10 µM each time.

These data come from patent US10508085B2, “Compounds and methods for IDO and TDO modulation, and indications therefor” (Plexxikon Inc., priority 2016, dated 2019).
